Values after ≈ are worked out from the molar mass of the structure shown.

5 molecules from ChEMBL document CHEMBL5390314, “Repurposing Azoles to Resolve Serotogenic Toxicity Associated with Linezolid to Combat Multidrug-Resistant Tuberculosis” (ACS Med Chem Lett, 2023) can be followed below.

Assay type in all cases: functional
Common to all, as to details: time 7 day

For assay [1], the system named is Mycobacterium tuberculosis. Briefly: Anti-mycobacterial activity against Isoniazid resistant Mycobacterium tuberculosis clinical isolate harbouring inhA mutant assessed as bacterial growth inhibition incubated for 7 days by microplate alamar blue assay.
Assay [2] deals with Mycobacterium tuberculosis. Briefly: Anti-mycobacterial activity against Isoniazid resistant Mycobacterium tuberculosis clinical isolate harbouring katG S315T mutant assessed as bacterial growth inhibition incubated for 7 days by microplate alamar blue assay.
For assay [3], the system named is Mycobacterium tuberculosis. The experiment in a line: Anti-mycobacterial activity against Rifampicin resistant Mycobacterium tuberculosis clinical isolate harbouring rpoB S531L mutant assessed as bacterial growth inhibition incubated for 7 days by microplate alamar blue assay.
The test system of assay [4] is Mycobacterium tuberculosis. The experiment in a line: Anti-mycobacterial activity against isoniazid, rifampicin, ethambutol and pyrazinamide-resistant Mycobacterium tuberculosis clinical isolate harbouring inhA/katG/rpoB H526D mutant assessed as bacterial growth inhibition incubated for 7 days by microplate alamar blue assay.

Turning to `Clc1ccccc1C(c1ccccc1)(c1ccccc1)n1ccnc1` [CLOTRIMAZOLE], the MIC50 in assay [1] was found to be 0.17 µM (≈ 0.0586 µg/mL); in assay [2], 1.72 µM (≈ 0.593 µg/mL); in assay [3], 1.53 µM (≈ 0.528 µg/mL); in assay [4] it was 5.07 µM (≈ 1.75 µg/mL). The MIC90 stood at 0.78 µM (≈ 0.269 µg/mL) in assay [1], 3.12 µM (≈ 1.08 µg/mL) in assay [2], 3.12 µM (≈ 1.08 µg/mL) in assay [3] and 6.25 µM (≈ 2.16 µg/mL) in assay [4].

Consider `NNC(=O)c1ccncc1` [ISONIAZID], for which the MIC50 was 0.98 µM (≈ 0.134 µg/mL) in assay [1], 11.06 µM (≈ 1.52 µg/mL) in assay [2], 23.03 µM (≈ 3.16 µg/mL) in assay [3] and above 100 µM in assay [4]. For the same molecule, the MIC90 is 1.56 µM (≈ 0.214 µg/mL) in assay [1], 12.5 µM (≈ 1.71 µg/mL) in assay [2], 25 µM (≈ 3.43 µg/mL) in assay [3] and above 100 µM in assay [4].

Turning to `CC(=O)NC[C@H]1CN(c2ccc(N3CCOCC3)c(F)c2)C(=O)O1` [LINEZOLID], the MIC50 in assay [1] was determined as 0.12 µM (≈ 0.0405 µg/mL); in assay [2], 0.42 µM (≈ 0.142 µg/mL); in assay [3], 0.24 µM (≈ 0.081 µg/mL); in assay [4] it was 0.81 µM (≈ 0.273 µg/mL). For the same molecule, the MIC90 in assay [1] was found to be 0.39 µM (≈ 0.132 µg/mL); in assay [2] it was 1.56 µM (≈ 0.526 µg/mL); in assay [3] it was 0.78 µM (≈ 0.263 µg/mL); in assay [4], 1.56 µM (≈ 0.526 µg/mL).

As for `Clc1ccc(COC(Cn2ccnc2)c2ccc(Cl)cc2Cl)c(Cl)c1` (stereo not given) [MICONAZOLE], the MIC50 stood at 0.28 µM (≈ 0.117 µg/mL) in assay [1], 3.58 µM (≈ 1.49 µg/mL) in assay [2], 2.74 µM (≈ 1.14 µg/mL) in assay [3] and 4.42 µM (≈ 1.84 µg/mL) in assay [4]. The MIC90 is 0.78 µM (≈ 0.325 µg/mL) in assay [1], 6.25 µM (≈ 2.6 µg/mL) in assay [2], 6.25 µM (≈ 2.6 µg/mL) in assay [3] and 6.25 µM (≈ 2.6 µg/mL) in assay [4].

`CO[C@H]1/C=C/O[C@@]2(C)Oc3c(C)c(O)c4c(O)c(c(/C=N/N5CCN(C)CC5)c(O)c4c3C2=O)NC(=O)/C(C)=C\C=C\[C@H](C)[C@H](O)[C@@H](C)[C@@H](O)[C@@H](C)[C@H](OC(C)=O)[C@@H]1C` [RIFAMPIN]: the MIC50 is below 0.04 µM in assay [1], below 0.04 µM in assay [2], 28.15 µM (≈ 23.2 µg/mL) in assay [3] and above 100 µM in assay [4]. Further, the MIC90 in assay [1] is below 0.04 µM; in assay [2] it was below 0.04 µM; in assay [3] it was 50 µM (≈ 41.1 µg/mL); in assay [4], above 100 µM.
